These results are taken from US11028088B2, “Modulators of BTK proteolysis and methods of use” (Yale University, priority 2018, dated 2021).

Where two headings read alike, the source gives them in different places.

The target of assay [1] is T1, HER3 (Homo sapiens, UniProt P21860).
T1 construct: endogenous in cells; host or cells: OVCAR8
Kind of assay: HER3/ERBB3 degradation (western blot, OVCAR8 cells). It counts as cell-based. The protocol:
FIG. 10 illustrates a Western blot of Compound 102-related degradation of ERBB3.
In various embodiments, treatment with PROTAC was performed in one of two ways: 1) For experiments involving >16 h exposure to compound, a 1000× stock was added to cells followed by gentle agitation; 2) For shorter treatments, a 2× stock was added to an equal volume of cells to ensure uniform drug exposure. For immortalized cell lines, 2×10^6 cells per treatment condition were collected and washed once with ice cold PBS (IX), followed by lysis in buffer containing 20 mM Tris [pH 8.0], 0.25% sodium deoxycholate, 1% Triton X-100, supplemented with protease (Roche) and phosphatase inhibitors (10 mM NaF, 2 mM Na3VO4, 10 mM β-glycerophosphate, 10 mM Na-pyrophosphate). Lysates were spun at 15,000×g for 10 min at 4° C. and supernatant was quantified for total protein content using the Pierce BCA Protein Assay (Thermo Fisher Scientific). 30 μg of protein was loaded onto 12% SDS-PAGE gels or 4-15% Mini-PROTEAN TGX precast gradient gels (Bio-Rad), transferred onto nitrocellulose membranes, and probed with the specified primary antibodies overnight with rocking at 4° C. in 1×TBS-T containing 5% non-fat milk.
(§1) Either anti-rabbit or anti-mouse HRP-conjugated secondary antibodies (Pierce) were incubated with the membranes for 1 h at room temperature at 1:10,000 dilutions in 5% non-fat milk in IX TBS-T. Imaging was performed using the ECL Prime chemiluminescent western blot detection reagents (Amersham) followed by visualization with the Bio-Rad ChemiDoc imaging instrument. All western blots were subsequently processed and quantified using the accompanying Bio-Rad Image Lab software. Primary antibodies used were: Anti-actin antibody (Cat. #MA 1-744) purchased from ThermoFisher Scientific; anti-BTK (Cat. #8547), anti-pBTK (Y223, Cat. #5082), anti-ITK (Cat. #2380), anti-GAPDH (Cat. #5179), anti-IKZF1 (Cat. #9034), and anti-IKZF3 (Cat. #15103) antibodies purchased from Cell Signaling Technology. All antibodies were used at 1:1,000 dilutions in 5% non-fat milk in 1×TBS-Tween (TBS-T) or Blotto blocker (Thermo Scientific) unless otherwise noted in supplier specifications.
In general terms: In western blotting, separated proteins are transferred to a membrane and probed.

Assay [2] concerns the target BTK (Homo sapiens, UniProt Q06187). Kind of assay: BTK degradation in NAMALWA cells (immunoblot). The arrangement: host or cells: NAMALWA. It is filed as cell-based. The settings on record: for ability to degrade BTK: dose escalation, 24 h; for DC50: concentration needed to degrade 50% of the total pool of BTK; for Max: maximal BTK degradation. The protocol: NAMALWA and Jurkat cell lines were purchased from ATCC and cultured according to supplier guidelines at 37° C. […] Wild-type and C481S BTK XLA cell lines were cultured as previously described (39). Written, informed consent was obtained prior to the collection of cells from CLL patients using the IWCLL2008 criteria. Isolation of mononuclear cells from peripheral blood was prepared using density gradient centrifugation. B-cells were then negatively selected ([…] Technologies). […] They were maintained at 37° C. in 5% CO2.
Lysates were spun at 15,000×g for 10 min at 4° C. and supernatant was quantified for total protein content using the Pierce BCA Protein Assay (Thermo Fisher Scientific).
as §1, with “Primary antibodies used were: Anti-actin antibody (Cat. #MA 1-744) purchased from ThermoFisher Scientific; anti-BTK (Cat. #8547), anti-pBTK (Y223, Cat. #5082), anti-ITK (Cat. #2380), anti-GAPDH (Cat. #5179), anti-IKZF1 (Cat. #9034), and anti-IKZF3 (Cat. #15103) antibodies purchased from Cell Signaling Technology.” left out

Chain of BTK (Q06187 whole entry): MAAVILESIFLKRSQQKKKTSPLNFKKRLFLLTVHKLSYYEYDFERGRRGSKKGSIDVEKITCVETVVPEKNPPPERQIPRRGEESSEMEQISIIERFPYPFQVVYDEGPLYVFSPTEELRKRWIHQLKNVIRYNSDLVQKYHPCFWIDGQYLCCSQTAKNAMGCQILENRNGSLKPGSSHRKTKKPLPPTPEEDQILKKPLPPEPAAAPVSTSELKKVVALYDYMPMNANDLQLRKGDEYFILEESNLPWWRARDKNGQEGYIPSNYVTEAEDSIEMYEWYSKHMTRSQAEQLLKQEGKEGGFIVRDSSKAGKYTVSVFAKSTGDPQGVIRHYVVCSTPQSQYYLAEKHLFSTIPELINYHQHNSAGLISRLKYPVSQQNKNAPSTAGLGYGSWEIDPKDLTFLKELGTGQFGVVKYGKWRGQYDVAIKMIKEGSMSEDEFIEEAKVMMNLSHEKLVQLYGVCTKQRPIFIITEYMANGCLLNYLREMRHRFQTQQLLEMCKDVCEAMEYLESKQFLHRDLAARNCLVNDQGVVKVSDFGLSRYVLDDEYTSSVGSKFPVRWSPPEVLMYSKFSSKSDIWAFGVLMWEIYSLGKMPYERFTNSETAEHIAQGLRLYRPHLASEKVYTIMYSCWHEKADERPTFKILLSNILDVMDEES
T1 sequence (P21860 20-1342): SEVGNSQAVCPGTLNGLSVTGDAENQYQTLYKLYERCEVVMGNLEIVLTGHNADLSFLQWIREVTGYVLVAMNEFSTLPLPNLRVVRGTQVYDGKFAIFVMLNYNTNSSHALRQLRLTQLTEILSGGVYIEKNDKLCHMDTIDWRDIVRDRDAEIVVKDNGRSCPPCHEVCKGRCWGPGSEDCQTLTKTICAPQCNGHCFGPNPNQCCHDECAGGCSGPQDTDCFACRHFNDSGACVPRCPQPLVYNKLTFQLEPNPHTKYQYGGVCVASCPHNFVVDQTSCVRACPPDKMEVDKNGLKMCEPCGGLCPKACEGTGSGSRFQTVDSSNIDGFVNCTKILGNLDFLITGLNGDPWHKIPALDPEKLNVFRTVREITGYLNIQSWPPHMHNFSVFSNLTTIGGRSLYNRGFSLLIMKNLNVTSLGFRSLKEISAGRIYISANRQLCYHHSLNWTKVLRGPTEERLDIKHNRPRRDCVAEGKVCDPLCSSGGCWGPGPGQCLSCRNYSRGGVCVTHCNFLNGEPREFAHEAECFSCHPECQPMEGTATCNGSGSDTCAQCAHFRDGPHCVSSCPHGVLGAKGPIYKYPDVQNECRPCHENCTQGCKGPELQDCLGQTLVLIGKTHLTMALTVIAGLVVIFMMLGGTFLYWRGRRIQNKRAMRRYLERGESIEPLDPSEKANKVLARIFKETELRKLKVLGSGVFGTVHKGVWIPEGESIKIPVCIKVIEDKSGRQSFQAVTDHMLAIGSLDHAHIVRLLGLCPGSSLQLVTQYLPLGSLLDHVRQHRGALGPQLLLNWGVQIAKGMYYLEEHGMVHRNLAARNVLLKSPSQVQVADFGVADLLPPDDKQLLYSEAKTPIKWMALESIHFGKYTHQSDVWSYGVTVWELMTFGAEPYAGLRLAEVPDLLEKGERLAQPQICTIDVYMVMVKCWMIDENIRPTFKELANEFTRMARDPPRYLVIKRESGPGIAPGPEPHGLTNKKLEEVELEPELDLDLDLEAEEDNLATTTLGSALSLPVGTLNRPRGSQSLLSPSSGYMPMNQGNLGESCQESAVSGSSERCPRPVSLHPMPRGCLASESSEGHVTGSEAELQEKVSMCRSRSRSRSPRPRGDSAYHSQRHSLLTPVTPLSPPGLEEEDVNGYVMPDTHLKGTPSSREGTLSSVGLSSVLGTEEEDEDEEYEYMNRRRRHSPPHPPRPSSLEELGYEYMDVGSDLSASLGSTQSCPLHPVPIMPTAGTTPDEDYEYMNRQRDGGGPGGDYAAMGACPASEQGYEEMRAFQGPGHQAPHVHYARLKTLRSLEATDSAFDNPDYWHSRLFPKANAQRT

Turning to `Nc1ncnc2c1c(-c1ccc(Oc3ccccc3)cc1)nn2C1CCN(CCOCC(=O)Nc2cccc3c2C(=O)N(C2CCC(=O)NC2=O)C3=O)CC1` (stereo not drawn) [Compound 100, 2-(2-(4-(4-amino-3-(4-phenoxyphenyl)-1H-pyrazolo[3,4-d]pyrimidin-1-yl)piperidin-1-yl)ethoxy)-N-(2-(2,6-dioxopiperidin-3-yl)-1,3-dioxoisoindolin-4-yl)acetamide], in assay [1], the “HER3 Degradation” value is reported as “No”. In assay [2] (NAMALWA cells), the “ability to degrade BTK” value is “inability to degrade BTK” and the DC50 result is recorded as “No Degradation (n = 4)”.
The like results for `Nc1ncnc2c1c(-c1ccc(Oc3ccccc3)cc1)nn2C1CCN(CCOCCOCC(=O)Nc2cccc3c2C(=O)N(C2CCC(=O)NC2=O)C3=O)CC1` (stereo not drawn) [Compound 101, 2-(2-(2-(4-(4-amino-3-(4-phenoxyphenyl)-1H-pyrazolo[3,4-d]pyrimidin-1-yl)piperidin-1-yl)ethoxy)ethoxy)-N-(2-(2,6-dioxopiperidin-3-yl)-1,3-dioxoisoindolin-4-yl)acetamide] were, in that order, “No”, “inability to degrade BTK” and “No Degradation”.
For the compound `Nc1ncnc2c1c(-c1ccc(Oc3ccccc3)cc1)nn2C1CCN(CCCOCCCOCCC(=O)Nc2cccc3c2C(=O)N(C2CCC(=O)NC2=O)C3=O)CC1` (stereo not drawn) [Compound 103, 3-(3-(3-(4-(4-amino-3-(4-phenoxyphenyl)-1H-pyrazolo[3,4-d]pyrimidin-1-yl)piperidin-1-yl)propoxy)propoxy)-N-(2-(2,6-dioxopiperidin-3-yl)-1,3-dioxoisoindolin-4-yl)propanamide], the “HER3 Degradation” value in assay [1] is on record as “No”. For the same compound, the DC50 in assay [2] (NAMALWA cells, read-out: DC50) turned out to be 68.3 nM. The same compound gave a Max in assay [2] (at 1.0 μM, NAMALWA cells) of 95%.
In the case of `Nc1ncnc2c1c(-c1ccc(Oc3ccccc3)cc1)nn2C1CCN(CCCCCCOCCOCC(=O)Nc2cccc3c2C(=O)N(C2CCC(=O)NC2=O)C3=O)CC1` (stereo not drawn) [Compound 104, 2-[2-[6-[4-[4-amino-3-(4-phenoxyphenyl)pyrazolo[3,4-d]pyrimidin-1-yl]-1-piperidyl]hexoxy]ethoxy]-N-[2-(2,6-dioxo-3-piperidyl)-1,3-dioxo-isoindolin-4-yl]acetamide], the “HER3 Degradation” value in assay [1] was “No”. Also, the “degradation of BTK at 1.0 μM” value in assay [2] (1.0 μM, NAMALWA cells) is listed as “nearly complete degradation”. Moreover, in assay [2] (NAMALWA cells, read-out: DC50), the DC50 worked out at 80.6 nM. Besides, the Max in assay [2] (at 1.0 μM, NAMALWA cells) came to 96%.
On to `C=CC(=O)Nc1cc(-c2nn(C3CCN(CCCCCCOCCOCCOCC(=O)N[C@H](C(=O)N4C[C@H](O)C[C@H]4C(=O)NCc4ccc(-c5scnc5C)cc4)C(C)(C)C)CC3)c3ncnc(N)c23)ccc1Oc1ccccc1` [Compound 123, (2S,4R)-1-((S)-19-(4-(3-(3-acrylamido-4-phenoxyphenyl)-4-amino-1H-pyrazolo[3,4-d]pyrimidin-1-yl)piperidin-1-yl)-2,2-dimethyl-5-oxo-7,10,13-trioxa-4-azanonadecanecarbonyl)-4-hydroxy-N-(4-(4-methylthiazol-5-yl)benzyl)pyrrolidine-2-carboxamide], for which the “HER3 Degradation” value in assay [1] was “No”.
As to `C=CC(=O)Nc1cc(-c2nn(C3CCN(CCCCCCOCCCCCOCC(=O)N[C@H](C(=O)N4C[C@H](O)C[C@H]4C(=O)NCc4ccc(-c5scnc5C)cc4)C(C)(C)C)CC3)c3ncnc(N)c23)ccc1Oc1ccccc1` [Compound 124, (2S,4R)-1-((S)-2-(2-(5-(6-(4-(3-(3-acrylamido-4-phenoxyphenyl)-4-amino-1H-pyrazolo[3,4-d]pyrimidin-1-yl)piperidin-1-yl)hexyloxy)pentyloxy)acetamido)-3,3-dimethylbutanoyl)-4-hydroxy-N-(4-(4-methylthiazol-5-yl)benzyl)pyrrolidine-2-carboxamide], the “HER3 Degradation” value in assay [1] is reported as “No”.
For `C=CC(=O)Nc1cc(-c2nn(C3CCN(CCCCCCOCCOCCOCCOCC(=O)N[C@H](C(=O)N4C[C@H](O)C[C@H]4C(=O)NCc4ccc(-c5scnc5C)cc4)C(C)(C)C)CC3)c3ncnc(N)c23)ccc1Oc1ccccc1` [Compound 125, (2S,4R)-1-((S)-22-(4-(3-(3-acrylamido-4-phenoxyphenyl)-4-amino-1H-pyrazolo[3,4-d]pyrimidin-1-yl)piperidin-1-yl)-2,2-dimethyl-5-oxo-7,10,13,16-tetraoxa-4-azadocosanecarbonyl)-4-hydroxy-N-(4-(4-methylthiazol-5-yl)benzyl)pyrrolidine-2-carboxamide], in assay [1], the “HER3 Degradation” value was “No”.
On the same count and under the same terms, then `C=CC(=O)Nc1cc(-c2nn(C3CCN(CCCCCCOCCOCCOCCOCCOCC(=O)N[C@H](C(=O)N4C[C@H](O)C[C@H]4C(=O)NCc4ccc(-c5scnc5C)cc4)C(C)(C)C)CC3)c3ncnc(N)c23)ccc1Oc1ccccc1` [Compound 126, (2S,4R)-1-((S)-25-(4-(3-(3-acrylamido-4-phenoxyphenyl)-4-amino-1H-pyrazolo[3,4-d]pyrimidin-1-yl)piperidin-1-yl)-2,2-dimethyl-5-oxo-7,10,13,16,19-pentaoxa-4-azapentacosanecarbonyl)-4-hydroxy-N-(4-(4-methylthiazol-5-yl)benzyl)pyrrolidine-2-carboxamide], with “No”.
With `Cc1ncsc1-c1ccc(CNC(=O)[C@@H]2C[C@@H](O)CN2C(=O)[C@H](C(C)C)N2Cc3ccccc3C2=O)c(OCCCCOCCCCN2CCC(n3nc(-c4ccc(Oc5ccccc5)cc4)c4c(N)ncnc43)CC2)c1` [Compound 127, (2S,4R)—N-(2-(4-(4-(4-(4-amino-3-(4-phenoxyphenyl)-1H-pyrazolo[3,4-d]pyrimidin-1-yl)piperidin-1-yl)butoxy)butoxy)-4-(4-methylthiazol-5-yl)benzyl)-4-hydroxy-1-((S)-3-methyl-2-(1-oxoisoindolin-2-yl)butanoyl)pyrrolidine-2-carboxamide], in assay [2] (NAMALWA cells, read-out: DC50), the DC50 is 162 nM. Also, the Max in assay [2] (concentration not given) is recorded as 50%.
`CN1C(=O)CCC(N2C(=O)c3ccc(NC(=O)COCCOCCN4CCC(n5nc(-c6ccc(Oc7ccccc7)cc6)c6c(N)ncnc65)CC4)cc3C2=O)C1=O` (stereo not drawn) [Compound 130, 2-(2-(2-(4-(4-amino-3-(4-phenoxyphenyl)-1H-pyrazolo[3,4-d]pyrimidin-1-yl)piperidin-1-yl)ethoxy)ethoxy)-N-(2-(1-methyl-2,6-dioxopiperidin-3-yl)-1,3-dioxoisoindolin-5-yl)acetamide]: the “ability to degrade BTK” value in assay [2] (NAMALWA cells) is “neither ibrutinib nor Compound 130 were able to induce degradation of BTK”.
In the case of `Nc1ncnc2c1c(-c1ccc(Oc3ccccc3)cc1)nn2C1CCN(CCOCCOCCOc2ccc3c(c2)C(=O)N(C2CCC(=O)NC2=O)C3=O)CC1` (stereo not drawn) [Compound 131, 5-(2-(2-(2-(4-(4-amino-3-(4-phenoxyphenyl)-1H-pyrazolo[3,4-d]pyrimidin-1-yl)piperidin-1-yl)ethoxy)ethoxy)ethoxy)-2-(2,6-dioxopiperidin-3-yl)isoindoline-1,3-dione], the DC50 in assay [2] (NAMALWA cells, read-out: DC50) turned out to be 13 nM. The compound further yielded a Max in assay [2] (concentration not given) greater than 99%.
The like results for `Nc1ncnc2c1c(-c1ccc(Oc3ccccc3)cc1)nn2C1CCN(CCOCCOCCOc2ccc3c(c2)CN(C2CCC(=O)NC2=O)C3=O)CC1` (stereo not drawn) [Compound 135, 3-(5-(2-(2-(2-(4-(4-amino-3-(4-phenoxyphenyl)-1H-pyrazolo[3,4-d]pyrimidin-1-yl)piperidin-1-yl)ethoxy)ethoxy)ethoxy)-1-oxoisoindolin-2-yl)piperidine-2,6-dione] were, in that order, 7 nM and greater than 99%.

What is called DC50 is the concentration giving 50% degradation.
